Assay results as given in publication PMC6297231 (Nature Communications, 2018).
pEC50: −log10 of the molar value. Where two headings read alike, the source gives them in different places.

Experiments:
RPMI8226 = experiment: Cell viability assay; format: cell-based; conditions: Homo sapiens, RPMI-8226, 24 h; RPMI8226 (MM); read-out: AZD5991 24h GI50
Experimental: (§1) Cells were plated at 3000 cells/well in 384-well white plates in corresponding cell growth media. […] Caspase-3/7 activation was subsequently determined using a Caspase-Glo 3/7 Reagent (Promega) and viability was assayed using the CellTiter-Glo Reagent (Promega) as described in manufacturer’s instructions. Dose–response curves for caspase-3/7 activation and viability were plotted and analyzed (including EC50 and GI50 determination) using GraphPad Prism.

A253 = experiment: Cell viability assay; format: cell-based; conditions: Homo sapiens, 24 h; A253 (Others); read-out: AZD5991 24h GI50
Experimental: as §1

Will2 = experiment: Cell viability assay; format: cell-based; conditions: 24 h; Will2 (NHL); read-out: AZD5991 24h GI50
Experimental: as §1

MINO = experiment: Cell viability assay; format: cell-based; conditions: Homo sapiens, 24 h; MINO (NHL); read-out: AZD5991 24h GI50
Experimental: as §1

primary MM cells = conditions: 48 MM patients, 24 h, Annexin V by flow
MV411 [1] = experiment: Caspase-3/7 activation assay; format: cell-based; conditions: Homo sapiens
Experimental: as §1

U2OS = experiment: Cell viability assay; format: cell-based; conditions: Homo sapiens, 24 h; U2OS (Others); read-out: AZD5991 24h GI50
Experimental: as §1

RI1 = experiment: Cell viability assay; format: cell-based; conditions: Ri-1, 24 h; RI1 (NHL); read-out: AZD5991 24h GI50
Experimental: as §1

H460 = experiment: Cell viability assay; format: cell-based; conditions: Homo sapiens, NCI-H460, 24 h; H460 (Lung); read-out: AZD5991 24h GI50
Experimental: as §1

MV411 [2] = experiment: Cell viability assay; format: cell-based; conditions: Homo sapiens, MV4-11, 24 h; MV411 (AML); read-out: AZD5991 24h GI50
Experimental: as §1

Kasumi3 = experiment: Cell viability assay; format: cell-based; conditions: Kasumi-3, 24 h; Kasumi3 (AML); read-out: AZD5991 24h GI50
Experimental: as §1

5637 = experiment: Cell viability assay; format: cell-based; conditions: 24 h; 5637 (Urology); read-out: AZD5991 24h GI50
Experimental: as §1

MWCL1 = experiment: Cell viability assay; format: cell-based; conditions: 24 h; MWCL1 (NHL); read-out: AZD5991 24h GI50
Experimental: as §1

OCIAML3 = experiment: Cell viability assay; format: cell-based; conditions: Homo sapiens, OCI-AML-3, 24 h, read-out: AZD5991 24h GI50
Experimental: as §1

MDAMB468 = experiment: Cell viability assay; format: cell-based; conditions: Homo sapiens, MDA-MB-468, 24 h; MDAMB468 (Breast); read-out: AZD5991 24h GI50
Experimental: as §1

KG1a = experiment: Cell viability assay; format: cell-based; conditions: Homo sapiens, KG-1a, 24 h; KG1a (AML); read-out: AZD5991 24h GI50
Experimental: as §1

SKMEL2 = experiment: Cell viability assay; format: cell-based; conditions: Homo sapiens, SK-MEL-2, 24 h; SKMEL2 (Skin); read-out: AZD5991 24h GI50
Experimental: as §1

THP-1 = experiment: Cell viability assay; format: cell-based; conditions: Homo sapiens, 24 h; THP-1 (AML); read-out: AZD5991 24h GI50
Experimental: as §1

DU145 = experiment: Cell viability assay; format: cell-based; conditions: Homo sapiens, DU-145, 24 h; DU145 (Urology); read-out: AZD5991 24h GI50
Experimental: as §1

OCIM1 = experiment: Cell viability assay; format: cell-based; conditions: OCI-M1, 24 h; OCIM1 (AML); read-out: AZD5991 24h GI50
Experimental: as §1

MALME3M = experiment: Cell viability assay; format: cell-based; conditions: Homo sapiens, Malme-3M, 24 h; MALME3M (Skin); read-out: AZD5991 24h GI50
Experimental: as §1

MAVER1 = experiment: Cell viability assay; format: cell-based; conditions: Homo sapiens, 24 h; MAVER1 (NHL); read-out: AZD5991 24h GI50
Experimental: as §1

SKOV3 = experiment: Cell viability assay; format: cell-based; conditions: Homo sapiens, SK-OV-3, 24 h; SKOV3 (Others); read-out: AZD5991 24h GI50
Experimental: as §1

MV4-11 tumors = experiment: MV4-11 rat subcutaneous xenograft; format: in vivo
Experimental: Female C.B.-17 SCID mice and female nude rats were purchased from Charles River Laboratories. […]. All xenograft studies were conducted at our Association for the Assessment and Accreditation of Laboratory Animal Care accredited facility in Waltham, MA in accordance with ethical regulations described in the guidelines established by the internal Institutional Animal Care and Use Committee. […]. In mice, drugs were dosed intravenously in a volume of 5 mL kg^-1 except for venetoclax that was dosed orally in a volume of 10 mL kg^-1. […]. Ten million MV4-11 cells were injected subcutaneously in the right flank of rats in a volume of 0.1 mL. Tumor volumes (measured by caliper), animal body weight, and tumor condition were recorded twice weekly for the duration of the study. The tumor volume was calculated using the formula: length (mm) × width (mm)^2/0.52. For efficacy studies, growth inhibition from the start of treatment was assessed by comparison of the differences in tumor volume between control and treated groups. Statistical significance was evaluated using non-parametric, unpaired, two-tailed t-test. […] For pharmacokinetic analysis, plasma samples were precipitated and diluted with acetonitrile containing internal standard and analyzed by LC–MS/MS versus a calibration curve of known concentrations.

ME1 = experiment: Caspase-3/7 activation assay; format: cell-based; conditions: ME-1, 6 h
Experimental: as §1

With Cc1c2c(nn1C)CSCc1cc(n(C)n1)CSc1cc(c3ccccc3c1)OCCCc1c(C(=O)O)n(C)c3c-2c(Cl)ccc13 (atropisomer, axis not shown; (Ra)) [(Ra)-7] as the compound, how does the GI50 (RPMI8226) read?
Its GI50 is 55 nM.

What about the GI50 (A253) of the same compound?
Its GI50 is > 30000 nM.

And the GI50 (Will2)?
The GI50 was 43 nM.

And the GI50 (MINO)?
Its GI50 is 149 nM.

And the “MM primary samples with EC50 values below 100 nM” value (primary MM cells)?
Its value is 71%.

What about the pEC50 (MV411 [1]; MV4-11, 6 h, read-out: 6h caspase EC50, MV411, single agent) of the same compound?
Its pEC50 is 7.25.

And the pEC50 (MV411 [1]; MV4-11, 6 h, read-out: AZD5991 6h EC50, MV411 (AML), caspase 3/7 activation)?
Its pEC50 is 7.60.

What about the pEC50 (MV411 [1]; MV4-11, caspase activation, Mcl-1-dependent cell line, read-out: MV4-11, EC50) of the same compound?
Its pEC50 is 7.62.

And the EC50 (MV411 [1]; MV4-11, mean of log transformed data, read-out: MV4-11 caspase pEC50 (converted))?
Its EC50 is 24 nM.

What about the GI50 (U2OS) of the same compound?
The GI50 was 20600 nM.

And the GI50 (RI1)?
The GI50 was 28200 nM.

What about the GI50 (H460) of the same compound?
The GI50 was 26400 nM.

What about the GI50 (MV411 [2]) of the same compound?
Its GI50 is 13 nM.

What about the GI50 (Kasumi3) of the same compound?
Its GI50 is 172 nM.

And the GI50 5637?
The GI50 was 28000 nM.

And the GI50 (MWCL1)?
The GI50 was 1650 nM.

What about the GI50 (OCIAML3) of the same compound?
Its GI50 is 714 nM.

And the GI50 (MDAMB468)?
Its GI50 is 540 nM.

And the GI50 (KG1a)?
Its GI50 is 1430 nM.

And the GI50 (SKMEL2)?
Its GI50 is 9310 nM.

What about the GI50 (THP-1) of the same compound?
The GI50 was 76 nM.

What about the GI50 (DU145) of the same compound?
Its GI50 is 26800 nM.

And the GI50 (OCIM1)?
The GI50 was 27700 nM.

And the GI50 (MALME3M)?
Its GI50 is 19500 nM.

What about the GI50 (MAVER1) of the same compound?
Its GI50 is 530 nM.

And the GI50 (SKOV3)?
The GI50 was 144 nM.

What about the “tolerability, body weight” value (MV4-11 tumors; 30 mg kg^−1 i.v.) of the same compound?
Its value is “no significant body weight loss”.

What about the antitumor response (MV4-11 tumors; single i.v. dose 30 mg kg^−1) of the same compound?
The antitumor response was “TR observed”.

What about the pEC50 (ME1; read-out: 6h caspase EC50, ME1, single agent) of the same compound?
The pEC50 was < 6.48.

What about the pEC50 (ME1; read-out: AZD5991 6h EC50, ME1 (AML), caspase 3/7 activation) of the same compound?
The pEC50 was 6.49.
